The record followed here is publication PMC10385824, “Antiproliferative and Tubulin-Destabilising Effects of 3-(Prop-1-en-2-yl)azetidin-2-Ones and Related Compounds in MCF-7 and MDA-MB-231 Breast Cancer Cells” (Pharmaceuticals, 2023).

Data set [1] relates to purified bovine brain tubulin. The data set is described as follows: Tubulin polymerization assay (light scattering, BK006 kit). It counts as biochemical. The conditions noted are these: compound at 10 μM; for Vmax: 37 °C, 340 nm; for Fold Reduction in Vmax: relative to vehicle. On the procedure:
Tubulin polymerization was monitored using the BK006 kit obtained from Cytoskeleton Inc. (Denver, CO, USA). The values reported represent the average values determined from two independent assays. Purified bovine brain tubulin (>99%, 3 mg/mL) in buffer containing PIPES (80 mM, pH 6.9), EGTA (0.5 mM), MgCl2 (2 mM), GTP (1 mM) and glycerol (10%) was incubated at 37 °C in vehicle (1% DMSO or EtOH (v/v) in dH2O) or with compounds 9h, 9q, 9s, 10h, 10p, 10r, 11h, 11p, 11r, 17f (all at 10 µM concentration); CA-4 (10 μM) was used as control. In this assay, light scattering is related to the concentration of polymerised microtubules produced. Tubulin assembly was monitored turbidimetrically at 340 nm at 37 °C in a Spectramax 340 PC spectrophotometer (Molecular Devices, Sunnyvale, CA, USA).

Data set [2] in a line: HPLC stability study in plasma. The format is in vitro ADME, human. The conditions noted are these: human, buffered plasma (plasma:buffer 1:9); Plasma; study over 264 h. On the procedure:
Analytical high-performance liquid chromatography (HPLC) stability studies were performed as follows using Symmetry® column (C18, 5 µm, 4.6 × 150 mm), Waters 2487 Dual Wavelength Absorbance detector, Waters 1525 binary HPLC pump and Waters 717 plus Autosampler (Waters Corporation, Milford, MA, USA) with detection at 254 nm as previously described. Samples were analysed using mobile phase acetonitrile (80%): water (20%), flow rate (1 mL/min) over 10 min. […] First, 30 µL of compound stock solution was diluted with appropriate buffer (1 mL); sample was shaken and injected immediately. Samples were withdrawn and analysed at the following time points: t = 0 min, 5 min, 30 min, 60 min, 90 min, 120 min, 24 h and 48 h. (ii) Thermal stability: Compound stock solution (1 mL) was placed in a glass vial on a heating block for 4 h at 60 °C. The sample was then cooled, diluted (acetonitrile) and analysed. (ii) Oxidising conditions: H2O2 (3%, 0.2 mL) was added to compound stock solution (0.8 mL). The vial was vortexed and retained at 20 °C, and the sample was analysed at 60, 120 180 and 240 min. (iv) Acidic conditions: HCl (0.1 M, 0.2 mL) was added to stock solutions (0.8 mL). The vial was mixed by vortex and retained at 20 °C. A sample was neutralised with NaOH (0.1 M, 0.2 mL) at 60, 120, 180 and 240 min, followed by HPLC analysis. (v) Alkaline conditions: NaOH (0.1 M, 0.2 mL) was added to stock solution (0.8 mL) of the compound in a vial. The vial was mixed by vortex and retained at 20 °C. A sample was neutralised with HCl (0.1 M, 0.2 mL) at 60, 120, 180 and 240 min followed by HPLC analysis. (vi) Photostability study: Compounds (stock solution, 1 mL) were placed in a vial, exposed to UV light for 4 h and then analysed by HPLC as above. Stability studies in plasma: Approval for this study was obtained from the School of Pharmacy and Pharmaceutical Sciences Trinity College Dublin Research Ethics Committee (2020–06-01-MS). Following informed consent, blood was withdrawn from healthy volunteers, and plasma was obtained by centrifugation and kept at −20 °C until further use. […] A sample (250 µL) was then added to the Eppendorf tube containing ZnSO4.7H2O solution (500 µL) (2% w/v ZnSO4 solution in acetonitrile:water, 1:1). The samples were centrifuged (10,000 rpm, 3 min), filtered (0.2 micron filter) and analysed by HPLC as above. Further samples were taken at one-hour intervals.

The next data set concerns MDA-MB-231/ATCC. Kind of data set: NCI-60 SRB screen, breast cancer. It counts as cell-based, human. The conditions noted are these: Homo sapiens; MDA-MB-231; obtained from NCI; five concentrations 0.01–100 μM; 48 h; read-out: Antiproliferative Activity IC50.
The test system of data set [3] is NCI 60 human cancer cell line panel. The data set is described as follows: NCI 60 cell line screen (SRB), panel values. Particulars: for CC50: read-out: Mean LC50; for IC (TGI (total growth inhibition)): read-out: Mean TGI.
The nature of data set [4]: HPLC stability study in phosphate buffers. The format is physicochemical. The conditions noted are these: for compound remaining: all pH values (4, 7.4, 9), after 11 days; for stability in words: over the pH range studied; for remaining at 264 h, 14.6 µg/mL: study over 264 h.
The nature of data set [5]: HPLC stability under degradation conditions (acid, alkali, heat, light, oxidation). The conditions noted are these: for remaining at 4 h / remaining at 312 h, 0.5 mg/mL / remaining at 5 h, 0.5 mg/mL: % Remaining; for remaining at 6 h: 30% H2O2 added to stock solution, Hydrogen peroxide (30 % H2O2, 0.2 mL), 20 °C; for remaining at 312 h, 0.5 mg/mL: solution in acetonitrile:water 80:20, daylight, Daylight (acetonitrile (80%):water (20%) 13 days); for remaining at 5 h, 0.5 mg/mL: stock solution in acetonitrile:water 80:20, heated, 80 °C (heating block, 5 h).
Description: Samples were analysed using mobile phase acetonitrile (80%): water (20%), flow rate (1 mL/min) over 10 min. […] First, 30 µL of compound stock solution was diluted with appropriate buffer (1 mL); sample was shaken and injected immediately. […] (ii) Thermal stability: Compound stock solution (1 mL) was placed in a glass vial on a heating block for 4 h at 60 °C. The sample was then cooled, diluted (acetonitrile) and analysed. (ii) Oxidising conditions: H2O2 (3%, 0.2 mL) was added to compound stock solution (0.8 mL).
a All samples were analysed using acetonitrile (80%):water (20%) as the mobile phase over
10 min and a flow rate of 1 mL/min.

Data set [6] has as its system MCF-7 human breast cancer cells. Kind of data set: cells.
Data set [7] has as its system MDA-MB-231 human breast cancer cells. Kind of data set: Alamar Blue cell viability (antiproliferative) assay. The format is cell-based. Particulars: read-out: IC50.
The test system of data set [8] is microtubule network in MCF-7 cells. Kind of data set: Immunofluorescence confocal microscopy. The format is cell-based, human. The conditions noted are these: 16 h. The procedure: CA-4 and β-lactam 9q depolymerise the microtubule network in MCF-7 cells. […] After 16 h, the cells were fixed in 4% paraformaldehyde and stained with mouse monoclonal anti-α-tubulin−FITC antibody (clone DM1A) (green), Alexa Fluor 488 dye, and counterstained with DAPI (blue). The confocal images were obtained by Leica SP8 confocal microscopy with Leica application suite X software. Representative confocal micrograph images of three separate experiments are shown above [scale bar: […]].
The effects of β-lactam 9q on MCF-7 cytoskeleton were determined using confocal microscopy as previously described. MCF-7 cells were seeded at 1 × 10^5 cells/mL in glass slides with eight chambers (BD Biosciences, San Jose, CA, USA). […] Following treatment, cells were gently washed in PBS, fixed for 20 min with 4% paraformaldehyde in PBS and permeabilised in 0.5% Triton X-100. The cells were then washed with PBS-T (PBS containing 0.1% Tween), blocked in 5% bovine serum albumin diluted in PBS-T and incubated with mouse monoclonal anti-α-tubulin-FITC antibody (clone DM1A) (Sigma, Milwaulkee, WI, USA) (1:100) for 2 h at 20 °C. The cells were washed again with PBS-T and incubated with Alexa Fluor 488 dye (1:450) for 1 h at 20 °C. Following washes in PBST, the cells were mounted in Ultra Cruz Mounting Media (Santa Cruz Biotechnology, Santa Cruz, CA, USA), which contained 4,6-diamino-2-phenolindol dihydrochloride (DAPI). The immunofluorescence cell images were captured by Leica SP8 confocal microscopy and analysed with Leica application suite X software. Microscopy experiments were performed on three independent occasions, and the images for these experiments were obtained on the same day using identical conditions.

Where [9] appears, read: Homo sapiens, 60 cell, read-out: Mean GI50, mean over all NCI 60 cell lines.
The mark [10] stands for this setting: read-out: Mean GI50, mean over all NCI 60 cell lines.
The mark [11] stands for this setting: 1M HCl added to stock solution, 1M HCl (0.1 mL, 20 °C, 4h).
Where [12] appears, read: 1M HCl added to stock solution, 1M HCl (0.2 mL, 50 °C, 4h).
The mark [13] stands for this setting: 1M NaOH added to stock solution, 1M NaOH (0.1 mL, 20 °C, 4h).
Where [14] appears, read: MCF7, read-out: Antiproliferative Activity IC50, MCF-7, eight concentrations 0.001–50 μM, mean ± SEM, Table 3.
The mark [15] stands for this setting: 1M NaOH added to stock solution, 1M NaOH (0.2 mL, 50 °C, 4h).

Like-named read-outs stand apart in the source and are kept apart here. Bounds are passed on as bounds.

Regarding `C=CCC1C(=O)N(c2cc(OC)c(OC)c(OC)c2)C1c1ccc(OC)cc1` (stereo not drawn) [10h, 3-Allyl-4-(4-methoxyphenyl)-1-(3,4,5-trimethoxyphenyl)azetidin-2-one], the Vmax in [1] is given as 0.0056 mOD/min. Moreover, in [1], the “Fold Reduction in Vmax” value is reported as 2.5. In addition, the amount remaining at 264 h, 41.3 µg/mL in [2] amounted to 100%. The results for the IC50 (with MDA-MB-231/ATCC; in data set [6] (setting [14])) were 120 nM and 35 ± 5 nM, respectively. For the same molecule, the values for the GI50 in data set [3] (setting [9]) and in data set [3] (setting [10]) were under 91.2 nM and 75.9 nM, respectively. Further, in [3] (Homo sapiens, 60 cell), the CC50 came to 81300 nM. In addition, the IC (TGI (total growth inhibition)) in [3] (Homo sapiens, 60 cell) was 17400 nM. Also, the compound remaining in data set [4] is 24–41%. The stability in words entry in data set [4] is reported as “poor stability”. The share remaining at 264 h, 14.6 µg/mL turned out to be 28% in [4] (phosphate buffer, pH 4.0); 41% in [4] (phosphate buffer, pH 7.4); 24% in data set [4] (phosphate buffer, pH 9.0). Also, the amount remaining at 4 h in data set [5] (setting [11]) turned out to be 97.5%; in data set [5] (setting [12]), 99.6%; in [5] (setting [13]), 96%. This molecule gave a fraction remaining at 6 h in [5] of 100%. Further, the share remaining at 312 h, 0.5 mg/mL in data set [5] worked out at 100%. Also, the share remaining at 5 h, 0.5 mg/mL in data set [5] was found to be 100%.
`C=CCC1C(=O)N(c2cc(OC)c(OC)c(OC)c2)C1c1ccc(OC)c([N+](=O)[O-])c1` (stereo not drawn) [10q, 3-Allyl-4-(4-methoxy-3-nitrophenyl)-1-(3,4,5-trimethoxyphenyl)azetidin-2-one] yielded a melting point of 108 to 110 °C. The same molecule gave an amount remaining at 264 h, 41.3 µg/mL in [2] of 90%. In data set [4], the compound remaining is recorded as 22–26% and the stability in words entry is reported as “poor stability”. The same molecule came in with an amount remaining at 264 h, 14.6 µg/mL in data set [4] (phosphate buffer, pH 4.0) of 26%. Moreover, the amount remaining at 264 h, 14.6 µg/mL in [4] (phosphate buffer, pH 7.4) came out at 25%. The molecule further returned a share remaining at 264 h, 14.6 µg/mL in [4] (phosphate buffer, pH 9.0) of 22%. Also, the amount remaining at 4 h in data set [5] (setting [11]) is 99.2%. In data set [5] (setting [12]), this molecule showed a share remaining at 4 h of 98.7%. In data set [5] (setting [13]), this molecule registered an amount remaining at 4 h of 97.8%. This molecule had a fraction remaining at 4 h in [5] (setting [15]) of 97.8%. Besides, in data set [5], the share remaining at 6 h worked out at 92%; the share remaining at 312 h, 0.5 mg/mL is 100%; the share remaining at 5 h, 0.5 mg/mL was determined as 100%. For the same molecule, in data set [6] (setting [14]), the IC50 was found to be 619 ± 70 nM.
As for `C=CCC1C(=O)N(c2cc(OC)c(OC)c(OC)c2)C1c1ccc(OC)c(N)c1` (stereo not drawn) [10r, 3-Allyl-4-(3-amino-4-methoxyphenyl)-1-(3,4,5-trimethoxyphenyl)azetidin-2-one], in data set [1], the Vmax is given as 0.0029 mOD/min. In data set [1], the “Fold Reduction in Vmax” value turned out to be 3.4. This molecule also registered an amount remaining at 264 h, 41.3 µg/mL in data set [2] of 97%. In addition, the IC50 in the data set with MDA-MB-231/ATCC is 35.2 nM; in data set [6] (MCF7, MCF-7), 10 to 33 nM; in data set [6] (setting [14]), 35 ± 4 nM; in data set [7] it was 35 nM. Also, the GI50 in [3] (setting [9]) was under 91.2 nM; in [3] (setting [10]), 85.1 nM. The CC50 in data set [3] (Homo sapiens, 60 cell) worked out at 79400 nM. The IC (TGI (total growth inhibition)) in data set [3] (Homo sapiens, 60 cell) was 53700 nM. Also, the share remaining at 264 h, 14.6 µg/mL in data set [4] (phosphate buffer, pH 4.0) was 96%; in data set [4] (phosphate buffer, pH 7.4) it was 99%; in [4] (phosphate buffer, pH 9.0), 83%. Further, in data set [4] (phosphate buffer, pH range studied, medium not specified, read-out: half-life (t½) (converted)), the half-life at 14.6 µg/mL is over 24 h. The amount remaining at 4 h in data set [5] (setting [11]) amounted to 91.8%; in [5] (setting [12]), 92.2%; in data set [5] (setting [15]), 83.1%. Besides, in [5], the share remaining at 6 h was determined as 8%. The molecule also gave a fraction remaining at 312 h, 0.5 mg/mL in data set [5] of 93%. This molecule displayed an amount remaining at 5 h, 0.5 mg/mL in [5] of 100%.
Consider `CC(=O)O[C@H]1C(=O)[C@@]2(C)[C@H]([C@H](OC(=O)c3ccccc3)[C@]3(O)C[C@H](OC(=O)[C@H](O)[C@@H](NC(=O)c4ccccc4)c4ccccc4)C(C)=C1C3(C)C)[C@]1(OC(C)=O)CO[C@@H]1C[C@@H]2O` [paclitaxel], for which, in [8], the “effect on microtubule network” value is “induced the formation of microtubule bundles and pseudo-asters”.

Broadly, the share remaining is the share of the starting amount still present when the sample was taken. Higher therefore signals less turnover. The term GI50 denotes the concentration that inhibits growth by half. One may read the melting point as the temperature of the solid-liquid transition. The half-life is how long it takes for the measured level to halve.
